# Test results: ChEMBL document CHEMBL1132434, “Antitumor benzothiazoles. 8. Synthesis, metabolic formation, and biological properties of the C- and N-oxidation products of antitumor 2-(4-aminophenyl)benzothiazoles” (J Med Chem, 1999)
# Columns and labels:
# [1] = system: MCF7; experiment: In vitro cytotoxicity against MCF-7 human mammary carcinoma cells; assay type: functional, cell-based
# [2] = system: SW-620; experiment: Growth inhibition of the SW-620 colon cancer cell line for 2-day in vitro assay.; assay type: functional; details: Homo sapiens, SW-620, 48 h
# [3] = system: OVCAR-3; experiment: Growth inhibition of the OVCAR-3 Ovarian cancer cell line for 2-day in vitro assay.; assay type: functional; details: Homo sapiens, OVCAR-3, 48 h
# [4] = system: M14; experiment: Growth inhibition of the M14 Melanoma cancer cell line for 2-day in vitro assay.; assay type: functional; details: Homo sapiens, M14, 48 h
# [5] = system: Malme-3M; experiment: Growth inhibition of the MALME-3M Melanoma cancer cell line for 2-day in vitro assay.; assay type: functional; details: Homo sapiens, 48 h
# [6] = system: HCC 2998; experiment: Growth inhibition of the HCC2998 colon cancer cell line for 2-day in vitro assay.; assay type: functional; details: Homo sapiens, HCC 2998, 48 h
# [7] = system: ACHN; experiment: Growth inhibition of the ACHN Renal cancer cell line for 2-day in vitro assay.; assay type: functional; details: Homo sapiens, 48 h
# [8] = system: MDA-MB-231; experiment: Growth inhibition of the […] Breast cancer cell line for 2-day in vitro assay.; assay type: functional; details: Homo sapiens, MDA-MB-231, 48 h
# [9] = system: OVCAR-8; experiment: Growth inhibition of the OVCAR-8 Ovarian cancer cell line for 2-day in vitro assay.; assay type: functional; details: Homo sapiens, OVCAR-8, 48 h
# [10] = system: MDA-MB-435; experiment: Growth inhibition of the […] Breast cancer cell line for 2-day in vitro assay.; assay type: functional; details: Homo sapiens, MDA-MB-435, 48 h
# [11] = system: OVCAR-4; experiment: Growth inhibition of the OVCAR-4 Ovarian cancer cell line for 2-day in vitro assay.; assay type: functional; details: Homo sapiens, OVCAR-4, 48 h
# [12] = system: DU-145; experiment: Growth inhibition of the DU-145 Prostate cancer cell line for 2-day in vitro assay.; assay type: functional; details: Homo sapiens, DU-145, 48 h
# [13] = system: HCT-116; experiment: Growth inhibition of the HCT116 colon cancer cell line for 2-day in vitro assay.; assay type: functional; details: Homo sapiens, HCT-116, 48 h
# [14] = system: SK-MEL-28; experiment: Growth inhibition of the SK-MEL-28 Melanoma cancer cell line for 2-day in vitro assay.; assay type: functional; details: Homo sapiens, SK-MEL-28, 48 h
# [15] = system: UO-31; experiment: Growth inhibition of the UO-31 Renal cancer cell line for 2-day in vitro assay.; assay type: functional; details: Homo sapiens, UO-31, 48 h
# [16] = system: MCF7; experiment: Growth inhibition of the MCF-7 Breast cancer cell line for 2-day in vitro assay.; assay type: functional; details: Homo sapiens, MCF7, 48 h
# [17] = system: SF-268; experiment: Growth inhibition of the SF-268 CNS cancer cell line for 2-day in vitro assay.; assay type: functional; details: Homo sapiens, SF-268, 48 h
# [18] = system: NCI/ADR-RES; experiment: Growth inhibition of the NCI/ADR-RES Breast cancer cell line for 2-day in vitro assay.; assay type: functional; details: Homo sapiens, 48 h
# [19] = system: SNB-19; experiment: Growth inhibition of the SNB19 CNS cancer cell line for 2-day in vitro assay.; assay type: functional; details: Homo sapiens, SNB-19, 48 h
# [20] = system: K562; experiment: Growth inhibition of the K-562 leukemia cell line for 2-day in vitro assay.; assay type: functional; details: Homo sapiens, K562, 48 h
# [21] = system: SK-OV-3; experiment: Growth inhibition of the SK-OV-3 Ovarian cancer cell line for 2-day in vitro assay.; assay type: functional; details: Homo sapiens, SK-OV-3, 48 h
# [22] = system: A498; experiment: Growth inhibition of the A498 Renal cancer cell line for 2-day in vitro assay.; assay type: functional; details: Homo sapiens, A498, 48 h
# [23] = system: U-251; experiment: Growth inhibition of the U251 CNS cancer cell line for 2-day in vitro assay.; assay type: functional; details: Homo sapiens, U-251, 48 h
# [24] = system: COLO 205; experiment: Growth inhibition of the COLO-205 colon cancer cell line for 2-day in vitro assay.; assay type: functional; details: Homo sapiens, COLO 205, 48 h
# [25] = system: A549; experiment: Growth inhibition of the A549/ATCC non-small cell lung cancer cell line for 2-day in vitro assay.; assay type: functional; details: Homo sapiens, A549, 48 h
# [26] = system: RXF 393; experiment: Growth inhibition of the RXF-393 Renal cancer cell line for 2-day in vitro assay.; assay type: functional; details: Homo sapiens, RXF 393, 48 h
# [27] = system: NCI-H322M; experiment: Growth inhibition of the NCI-H322M non-small cell lung cancer cell line for 2-day in vitro assay.; assay type: functional; details: Homo sapiens, 48 h
# [28] = system: PC-3; experiment: Growth inhibition of the PC-3 Prostate cancer cell line for 2-day in vitro assay.; assay type: functional; details: Homo sapiens, PC-3, 48 h
# [29] = system: HCT-15; experiment: Growth inhibition of the HCT-15 colon cancer cell line for 2-day in vitro assay.; assay type: functional; details: Homo sapiens, HCT-15, 48 h
# [30] = system: EKVX; experiment: Growth inhibition of the EKVX non-small cell lung cancer cell line for 2-day in vitro assay.; assay type: functional; details: Homo sapiens, 48 h
# [31] = system: NCI-H226; experiment: Growth inhibition of the NCI-H226 non-small cell lung cancer cell line for 2-day in vitro assay.; assay type: functional; details: Homo sapiens, NCI-H226, 48 h
# [32] = system: SR; experiment: Growth inhibition of the SR leukemia cell line for 2-day in vitro assay.; assay type: functional; details: Homo sapiens, 48 h
# [33] = system: T47D; experiment: Growth inhibition of the T-47D Breast cancer cell line for 2-day in vitro assay.; assay type: functional; details: Homo sapiens, 48 h
# [34] = system: UACC-257; experiment: Growth inhibition of the UACC-257 Melanoma cancer cell line for 2-day in vitro assay.; assay type: functional; details: Homo sapiens, UACC-257, 48 h
# [35] = system: HOP-92; experiment: Growth inhibition of the HOP-92 non-small cell lung cancer cell line for 2-day in vitro assay.; assay type: functional; details: Homo sapiens, HOP-92, 48 h
# [36] = system: BT-549; experiment: Growth inhibition of the BT-549 Breast cancer cell line for 2-day in vitro assay.; assay type: functional; details: Homo sapiens, BT-549, 48 h
# [37] = system: KM12; experiment: Growth inhibition of the KM12 colon cancer cell line for 2-day in vitro assay.; assay type: functional; details: Homo sapiens, KM12, 48 h
# [38] = system: NCI-H23; experiment: Growth inhibition of the NCI-H23 non-small cell lung cancer cell line for 2-day in vitro assay.; assay type: functional; details: Homo sapiens, NCI-H23, 48 h
# [39] = system: SN12C; experiment: Growth inhibition of the SN12C Renal cancer cell line for 2-day in vitro assay.; assay type: functional; details: Homo sapiens, 48 h
# [40] = system: Hs-578T; experiment: Growth inhibition of the Hs 578.T Breast cancer cell line for 2-day in vitro assay.; assay type: functional; details: Homo sapiens, 48 h
# [41] = system: SNB-75; experiment: Growth inhibition of the SNB-75 CNS cancer cell line for 2-day in vitro assay.; assay type: functional; details: Homo sapiens, SNB-75, 48 h
# [42] = system: SK-MEL-5; experiment: Growth inhibition of the SK-MEL-5 Melanoma cancer cell line for 2-day in vitro assay.; assay type: functional; details: Homo sapiens, SK-MEL-5, 48 h
# [43] = system: NCI-H460; experiment: Growth inhibition of the NCI-H460 non-small cell lung cancer cell line for 2-day in vitro assay.; assay type: functional; details: Homo sapiens, NCI-H460, 48 h
# [44] = system: OVCAR-5; experiment: Growth inhibition of the OVCAR-5 Ovarian cancer cell line for 2-day in vitro assay.; assay type: functional; details: Homo sapiens, OVCAR-5, 48 h
# [45] = system: UACC-62; experiment: Growth inhibition of the UACC-62 Melanoma cancer cell line for 2-day in vitro assay.; assay type: functional; details: Homo sapiens, UACC-62, 48 h
# [46] = system: TK-10; experiment: Growth inhibition of the TK-10 Renal cancer cell line for 2-day in vitro assay.; assay type: functional; details: Homo sapiens, TK-10, 48 h
# [47] = system: SF-295; experiment: Growth inhibition of the SF-295 CNS cancer cell line for 2-day in vitro assay.; assay type: functional; details: Homo sapiens, SF-295, 48 h
# [48] = system: MOLT-4; experiment: Growth inhibition of the MOLT-4 leukemia cell line for 2-day in vitro assay.; assay type: functional; details: Homo sapiens, MOLT-4, 48 h
# [49] = system: NCI-H522; experiment: Growth inhibition of the NCI-H522 non-small cell lung cancer cell line for 2-day in vitro assay.; assay type: functional; details: Homo sapiens, NCI-H522, 48 h
# [50] = system: HOP-62; experiment: Growth inhibition of the HOP-62 non-small cell lung cancer cell line for 2-day in vitro assay.; assay type: functional; details: Homo sapiens, HOP-62, 48 h
# [51] = system: HT-29; experiment: Growth inhibition of the HT-29 colon cancer cell line for 2-day in vitro assay.; assay type: functional; details: Homo sapiens, HT-29, 48 h
# [52] = system: SK-MEL-2; experiment: Growth inhibition of the SK-MEL-2 Melanoma cancer cell line for 2-day in vitro assay.; assay type: functional; details: Homo sapiens, SK-MEL-2, 48 h
# [53] = system: CCRF-CEM; experiment: Growth inhibition of the CCRF-CEM leukemia cell line for 2-day in vitro assay.; assay type: functional; details: Homo sapiens, 48 h
# [54] = system: 786-0; experiment: Growth inhibition of the 786-O Renal cancer cell line for 2-day in vitro assay.; assay type: functional; details: Homo sapiens, 786-0, 48 h
# [55] = system: LOX IMVI; experiment: Growth inhibition of the LOX IMVI Melanoma cancer cell line for 2-day in vitro assay.; assay type: functional; details: Homo sapiens, 48 h
compound,measurement,setting,value
Cc1cc(-c2nc3c(O)cccc3s2)ccc1N,IC50,[1],> 100 µM
CC(=O)Nc1ccc(-c2nc3ccc(O)cc3s2)cc1C,IC50,[1],46.1 µM
Nc1ccc(-c2nc3ccc(O)cc3s2)cc1,IC50,[1],21.6 µM
CC(=O)Nc1ccc(-c2nc3ccc(O)cc3s2)cc1Cl,IC50,[1],71.2 µM
Nc1ccc(-c2nc3ccccc3s2)cc1Cl,IC50,[1],< 0.001 µM
Nc1ccc(-c2nc3ccccc3s2)cc1I,IC50,[1],< 0.001 µM
Cc1cc(-c2nc3ccc(O)cc3s2)ccc1N,GI50,[2],66.1 µM
same,GI50,[3],38.9 µM
same,GI50,[4],33.1 µM
same,GI50,[5],83.2 µM
same,GI50,[6],> 100 µM
same,GI50,[7],53.7 µM
same,GI50,[8],44.7 µM
same,GI50,[9],> 100 µM
same,GI50,[10],89.1 µM
same,GI50,[11],37.2 µM
same,GI50,[12],33.9 µM
same,GI50,[13],43.7 µM
same,GI50,[14],64.6 µM
same,GI50,[15],21.4 µM
same,GI50,[16],56.2 µM
same,GI50,[17],35.5 µM
same,GI50,[18],91.2 µM
same,GI50,[19],45.7 µM
same,GI50,[20],36.3 µM
same,GI50,[21],37.2 µM
same,GI50,[22],41.7 µM
same,GI50,[23],31.6 µM
same,IC50,[1],< 0.001 µM
same,GI50,[24],> 100 µM
same,GI50,[25],34.7 µM
same,GI50,[26],30.2 µM
same,GI50,[27],39.8 µM
same,GI50,[28],50.1 µM
same,GI50,[29],> 100 µM
same,GI50,[30],4.07 µM
same,GI50,[31],60.3 µM
same,GI50,[32],21.9 µM
same,GI50,[33],22.4 µM
same,GI50,[34],> 100 µM
same,GI50,[35],> 100 µM
same,GI50,[36],14.1 µM
same,GI50,[37],57.5 µM
same,GI50,[38],12.6 µM
same,GI50,[39],38.9 µM
same,GI50,[40],95.5 µM
same,GI50,[41],15.8 µM
same,GI50,[42],52.5 µM
same,GI50,[43],38.9 µM
same,GI50,[44],83.2 µM
same,GI50,[45],57.5 µM
same,GI50,[46],77.6 µM
same,GI50,[47],31.6 µM
same,GI50,[48],26.9 µM
same,GI50,[49],30.2 µM
same,GI50,[50],30.9 µM
same,GI50,[51],37.2 µM
same,GI50,[52],> 100 µM
same,GI50,[53],794 nM
same,GI50,[54],29.5 µM
same,GI50,[55],> 100 µM
Nc1ccc(-c2nc3cc(O)ccc3s2)cc1,IC50,[1],> 100 µM
CC(=O)ON(C(C)=O)c1ccc(-c2nc3ccccc3s2)cc1C,IC50,[1],0.055 µM
Cc1cc(-c2nc3cccc(O)c3s2)ccc1N,IC50,[1],90.8 µM
CC(=O)ON(C(C)=O)c1ccc(-c2nc3ccccc3s2)cc1,IC50,[1],< 0.001 µM
CC(=O)Nc1ccc(-c2nc3cccc(O)c3s2)cc1C,IC50,[1],48.2 µM
Nc1ccc(-c2nc3c(O)cccc3s2)cc1,IC50,[1],> 100 µM
